Data on eleven compounds can be found in patent US20080045504A1, “Benzonitrile Derivatives to Treat Musculoskeletal Frailty” (PFIZER PRODUCTS INC., priority 2004, published 2008).

The subject of assay [1] is orchiectomized (ORX) immature male rat. As to the kind of experiment: Orchiectomized immature rat assay (levator ani and ventral prostate weights). Particulars: 4 days, TP 10 mg/kg = 100%, ORX control = 0%; for % TP Control LA: levator ani weight; for % TP Control VP: ventral prostate weight. In kind it is in vivo, Sprague Dawley rat. How it is done: All animal studies were performed in accordance with the Guide for Care and Use of Laboratory Animals (National Research Council, 1996). Twenty-one day old male Sprague Dawley rats were acquired from Taconic, Inc, Germantown, N.Y. Rats were housed five per cage at standard vivarium conditions ([…], 12-h light/dark cycle), with normal chow diet and tap water ad libitum. At 25 days of age, the rats underwent bilateral orchiectomy surgery (ORX) after sedation with 3-5% Isoflurane. Following the surgery, the animals were treated immediately by daily subcutaneous (s.c.) injection with vehicle (sesame oil), testosterone propionate (TP, 10 mg/kg) and test compounds. The dosage of test compound administered is in mg/kg. At the end of the 4 days of administrations, the animals were sacrificed in a carbon dioxide chamber, the ventral prostate (VP) and levator ani muscle complex (LA) were removed and weighed. The increase in the weights of VP or LA by TP was expressed as 100%, and the ORX control as baseline, 0%; the response of the test compounds was calculated as the percentage increase compared to TP.

The target in assay [2] is T1, recombinant human androgen receptor (hAR) (Homo sapiens, UniProt P10275).
T1 construct: made in house; host or cells: baculovirus/Sf9 insect cells (crude extract)
T1 sequence (P10275 1-920): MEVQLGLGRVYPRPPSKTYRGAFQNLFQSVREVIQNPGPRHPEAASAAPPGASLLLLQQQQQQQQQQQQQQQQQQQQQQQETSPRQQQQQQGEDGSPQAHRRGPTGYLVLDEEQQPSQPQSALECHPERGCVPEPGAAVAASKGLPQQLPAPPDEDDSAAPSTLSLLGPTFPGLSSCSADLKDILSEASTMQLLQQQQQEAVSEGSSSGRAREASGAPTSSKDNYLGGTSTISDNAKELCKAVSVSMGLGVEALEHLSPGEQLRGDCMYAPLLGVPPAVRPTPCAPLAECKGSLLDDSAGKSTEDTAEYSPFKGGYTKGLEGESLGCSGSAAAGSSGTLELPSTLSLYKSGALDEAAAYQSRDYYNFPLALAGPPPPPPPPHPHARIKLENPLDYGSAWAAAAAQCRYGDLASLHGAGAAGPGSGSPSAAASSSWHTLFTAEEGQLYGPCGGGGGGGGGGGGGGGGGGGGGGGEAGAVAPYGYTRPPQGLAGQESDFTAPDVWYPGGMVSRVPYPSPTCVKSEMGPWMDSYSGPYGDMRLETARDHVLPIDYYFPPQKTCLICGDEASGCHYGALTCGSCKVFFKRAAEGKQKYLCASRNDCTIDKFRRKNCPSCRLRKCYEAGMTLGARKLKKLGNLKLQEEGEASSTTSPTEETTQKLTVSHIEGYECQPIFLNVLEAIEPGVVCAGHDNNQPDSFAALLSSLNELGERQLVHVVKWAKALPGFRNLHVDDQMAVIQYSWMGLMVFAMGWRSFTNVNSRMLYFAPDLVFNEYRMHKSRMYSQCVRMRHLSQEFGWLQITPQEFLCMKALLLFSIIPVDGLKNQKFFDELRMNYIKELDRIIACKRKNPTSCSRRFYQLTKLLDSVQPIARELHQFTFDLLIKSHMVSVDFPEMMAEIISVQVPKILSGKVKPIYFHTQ
As to the kind of experiment: Human androgen receptor binding analysis (3H-DHT competitive binding). The protocol:
The following is a brief description of the assay that determines the affinity of a compound for the recombinant human androgen receptor (hAR). Competitive binding analysis is performed on baculovirus/Sf9 generated hAR extracts in the presence or absence of differing concentrations of drug and a fixed concentration of ^3H-dihydrotestosterone (^3H-DHT) as tracer. This binding assay method is a modification of a protocol previously described (Chang, et. al. J. Steroid Biochem. 20(1):11-17 1984). Briefly, progressively decreasing concentrations of compounds are incubated in the presence of hAR extract (Chang et al. P.N.A.S. Vol. 89, pp. 5546-5950, 1992), hydroxylapatite and 1 nM ^3H-DHT for one hour at 4° C. Subsequently, the binding reactions are washed three times to completely remove excess unbound ^3H-DHT. hAR bound ^3H-DHT levels are determined in the presence of compounds (=competitive binding) and compared to levels bound when no competitor is present (=maximum binding). Compound binding affinity to the hAR is expressed as the concentration of compound at which one half of the maximum binding is inhibited (the IC50).

Consider `CC[C@@H](C)N(C)c1ccc(C#N)c(C(F)(F)F)c1` [Example 7, 4-((R)-sec-Butyl-methyl-amino)-2-trifluoromethyl-benzonitrile], for which the “% TP Control LA” value in assay [1] (3 mg/kg s.c.) is 40%; in assay [1] (10 mg/kg s.c.) it was 65%; in assay [1] (30 mg/kg s.c.), 89%. For the same compound, the entries for the “% TP Control VP” value in assay [1] (3 mg/kg s.c.), in assay [1] (10 mg/kg s.c.) and in assay [1] (30 mg/kg s.c.) were 23%, 24% and 39%, respectively. The IC50 in assay [2] is 1.09 nM.
Regarding `CCCCN(CCCC)c1ccc(C#N)c(C(F)(F)F)c1` [Example 44, 4-(Dibutyl-amino)-2-trifluoromethyl-benzonitrile], the half-inhibitory concentration (IC50) in assay [2] stood at 12.8 nM.
The same measure, in the same setting: as for `N#Cc1ccc(N2CCC[C@@H]2CO)cc1C(F)(F)F` [Example 45, 4-(2(R)-(Hydroxy-methyl)-pyrrolidin-1-yl)-2-trifluoromethyl-benzonitrile], the figure is 22.7 nM.
Still for that read-out and setting: to `CCCN(c1ccc(C#N)c(Cl)c1)C(C)C` [Example 46, 2-Chloro-4-(isopropyl-propyl-amino)-benzonitrile] belongs 9.79 nM; to `CCN(CC)c1ccc(C#N)c(Cl)c1` [Example 47, 2-Chloro-4-(diethyl-amino)-benzonitrile], 2.98 nM; to `CCN(c1ccc(C#N)c(Cl)c1)C(C)C` [Example 48, 2-Chloro-4-(ethyl-isopropyl-amino)-benzonitrile], 19.7 nM.
Same read-out and setting: to `CCCN(CCC)c1ccc(C#N)c(Cl)c1` [Example 49, 2-Chloro-4-(dipropyl-amino)-benzonitrile] belongs 8.33 nM; to `CC(C)N(C)c1ccc(C#N)c(C#N)c1` [Example 50, 4-(Isopropyl-methyl-amino)-phthalonitrile], 8.23 nM.
Take `COC[C@H]1CCCN1c1ccc(C#N)c(C#N)c1` [Example 51, 4-(2-(R)-Methoxymethyl-pyrrolidin-1-yl)-phthalonitrile]: the IC50 in assay [2] turned out to be 12.4 nM.
As for `N#Cc1ccc(N2CCCCCC2)cc1C#N` [Example 52, 4-Azepan-1-yl-phthalonitrile], in assay [2], the IC50 was 5.04 nM.
On the same count and under the same terms, to `CCCN(CCC)c1cc(F)c(C#N)c(F)c1` [Example 53, 2,6-Difluoro-4-(dipropyl-amino)-benzonitrile] belongs 4.06 nM.
